# Patent US10434225B2, “Para-xylene films and therapeutic uses thereof” (NORTHWESTERN UNIVERSITY, priority 2013, dated 2019)
# Tested on: Interleukin-6 (IL-6)
# Experiment: IL-6 gene expression by real-time PCR in macrophages on surfaces
# Type: cell-based, murine
# Conditions: RAW264.7 macrophages, LPS stimulated (+), DEX added to Control or integrated into PPX film
# Experimental: In-vitro analysis and drug release was completed through deposition of PPX on varying culture plates. Surface treatment of prepared PPX culture plates either had plasma oxidation (Oxd) or lack thereof resulting in hydrophilic or hydrophobic surfaces (native form). RAW264.7 macrophages and NIH-3T3 fibroblasts were analyzed on varying surfaces to determine in-vitro response. Cells were kept in DMEM media supplemented with 10% FBS and 1% Pen/Strep in humidified atmosphere with 5% CO^2. Cellular analysis was completed through the application of time lapse bright field imaging in addition to multiple cellular assays examining viability (MTT, Roche Diagnostics), proliferation (CyQUANT, Life Technologies) and adhesion (Vybrant, Molecular Probes) onto polystyrene, representing baseline biocompatible control surfaces, and various PPX surfaces. RNA isolation was accomplished utilizing TRIzol reagent (Invitrogen Corporation, Carlsbad, Calif.) per the manufacturer's guidelines. cDNA was synthesized using the iScript Select cDNA Synthesis Kit (Quanta Biosciences, Gaithersburg, Md.). PCR was done using SYBER Green detection reagents (Quanta Biosciences, Gaithersburg, Md.) and appropriate primers for IL-6 and β-Actin (Integrated DNA Technologies, Coralville, Iowa). Samples were amplified using a MyiQ real-time PCR detection system (Bio-Rad).
smiles,measurement,value
"C[C@@H]1C[C@H]2[C@@H]3CCC4=CC(=O)C=C[C@]4(C)[C@@]3(F)[C@@H](O)C[C@]2(C)[C@@]1(O)C(=O)CO [DEX, dexamethasone]","IL-6 expression, LPS stimulation (+) with DEX",217.4±54.0
